Experimental data: PubChem BioAssay (NCI)
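Cells were grown in 96-well plates and exposed to each compound for 48 hours at five concentrations; endpoints were interpolated linearly between bracketing concentrations, or set to the highest concentration if not reached. TGI: concentration producing complete growth inhibition.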

Legend:
Experiment in all cases: NCI-60 cell line screen, 48 h
786-0 renal = tested on: 786-0 renal
A498 renal = tested on: A498 renal
A549 NSCLC = tested on: A549 NSCLC
ACHN renal = tested on: ACHN renal
CCRF-CEM leukemia = tested on: CCRF-CEM leukemia
COLO 205 colon = tested on: COLO 205 colon
DMS 114 small cell lung = tested on: DMS 114 small cell lung
EKVX NSCLC = tested on: EKVX NSCLC
HCC-2998 colon = tested on: HCC-2998 colon
HCT-15 colon = tested on: HCT-15 colon
HL-60(TB) leukemia = tested on: HL-60(TB) leukemia
HOP-18 NSCLC = tested on: HOP-18 NSCLC
HOP-62 NSCLC = tested on: HOP-62 NSCLC
IGROV1 ovarian = tested on: IGROV1 ovarian
K-562 leukemia = tested on: K-562 leukemia
KM12 colon = tested on: KM12 colon
KM20L2 colon = tested on: KM20L2 colon
LOX IMVI melanoma = tested on: LOX IMVI melanoma
LXFL 529 NSCLC = tested on: LXFL 529 NSCLC
M14 melanoma = tested on: M14 melanoma
M19-MEL melanoma = tested on: M19-MEL melanoma
MALME-3M melanoma = tested on: MALME-3M melanoma
MOLT-4 leukemia = tested on: MOLT-4 leukemia
NCI-H226 lung = tested on: NCI-H226 lung
NCI-H23 lung = tested on: NCI-H23 lung
NCI-H460 lung = tested on: NCI-H460 lung
NCI-H522 lung = tested on: NCI-H522 lung
OVCAR-3 ovarian = tested on: OVCAR-3 ovarian
OVCAR-5 ovarian = tested on: OVCAR-5 ovarian
OVCAR-8 ovarian = tested on: OVCAR-8 ovarian
RPMI-8226 leukemia = tested on: RPMI-8226 leukemia
RXF 393 renal = tested on: RXF 393 renal
RXF-631 renal = tested on: RXF-631 renal
SF-268 CNS = tested on: SF-268 CNS
SF-295 CNS = tested on: SF-295 CNS
SF-539 CNS = tested on: SF-539 CNS
SK-MEL-2 melanoma = tested on: SK-MEL-2 melanoma
SK-MEL-28 melanoma = tested on: SK-MEL-28 melanoma
SK-MEL-5 melanoma = tested on: SK-MEL-5 melanoma
SK-OV-3 ovarian = tested on: SK-OV-3 ovarian
SN12C renal = tested on: SN12C renal
SNB-19 CNS = tested on: SNB-19 CNS
SNB-75 CNS = tested on: SNB-75 CNS
SW-620 colon = tested on: SW-620 colon
TK-10 renal = tested on: TK-10 renal
U251 CNS = tested on: U251 CNS
UACC-257 melanoma = tested on: UACC-257 melanoma
UACC-62 melanoma = tested on: UACC-62 melanoma
UO-31 renal = tested on: UO-31 renal
CAKI-1 renal = tested on: CAKI-1 renal
DLD-1 colon = tested on: DLD-1 colon
DMS 273 small cell lung = tested on: DMS 273 small cell lung
HCT-116 colon = tested on: HCT-116 colon
HOP-92 NSCLC = tested on: HOP-92 NSCLC
OVCAR-4 ovarian = tested on: OVCAR-4 ovarian
SNB-78 CNS = tested on: SNB-78 CNS
XF 498 CNS = tested on: XF 498 CNS

Cc1c(CCl)c(=O)oc2c(C)c3occ(CCl)c(=O)c3cc12
TGI (786-0 renal): > 100 µM | TGI (A498 renal): > 100 µM | TGI (A549 NSCLC): > 100 µM | TGI (ACHN renal): > 100 µM | TGI (CCRF-CEM leukemia): 14.2 µM | TGI (COLO 205 colon): 32.9 µM | TGI (DMS 114 small cell lung): 41.8 µM | TGI (EKVX NSCLC): > 100 µM | TGI (HCC-2998 colon): > 100 µM | TGI (HCT-15 colon): 64.6 µM | TGI (HL-60(TB) leukemia): 20.2 µM | TGI (HOP-18 NSCLC): 32 µM | TGI (HOP-62 NSCLC): > 100 µM | TGI (IGROV1 ovarian): 40.9 µM | TGI (K-562 leukemia): 23.6 µM | TGI (KM12 colon): > 100 µM | TGI (KM20L2 colon): > 100 µM | TGI (LOX IMVI melanoma): 30.8 µM | TGI (LXFL 529 NSCLC): 30.2 µM | TGI (M14 melanoma): 37.5 µM | TGI (M19-MEL melanoma): 30.3 µM | TGI (MALME-3M melanoma): > 100 µM | TGI (MOLT-4 leukemia): 22.8 µM | TGI (NCI-H226 lung): 48.7 µM | TGI (NCI-H23 lung): 83.7 µM | TGI (NCI-H460 lung): > 100 µM | TGI (NCI-H522 lung): 30.5 µM | TGI (OVCAR-3 ovarian): > 100 µM | TGI (OVCAR-5 ovarian): > 100 µM | TGI (OVCAR-8 ovarian): > 100 µM | TGI (RPMI-8226 leukemia): 26.8 µM | TGI (RXF 393 renal): 30.9 µM | TGI (RXF-631 renal): 31.1 µM | TGI (SF-268 CNS): 71.7 µM | TGI (SF-295 CNS): > 100 µM | TGI (SF-539 CNS): 44.9 µM | TGI (SK-MEL-2 melanoma): > 100 µM | TGI (SK-MEL-28 melanoma): 35.4 µM | TGI (SK-MEL-5 melanoma): > 100 µM | TGI (SK-OV-3 ovarian): > 100 µM | TGI (SN12C renal): 56.4 µM | TGI (SNB-19 CNS): 54.7 µM | TGI (SNB-75 CNS): 44.8 µM | TGI (SW-620 colon): > 100 µM | TGI (TK-10 renal): > 100 µM | TGI (U251 CNS): > 100 µM | TGI (UACC-257 melanoma): > 100 µM | TGI (UACC-62 melanoma): 30.3 µM | TGI (UO-31 renal): 31.4 µM

O=C1c2ccccc2C(=O)c2c(O)c(O)cc(O)c21
TGI (786-0 renal): > 100 µM | TGI (A498 renal): > 100 µM | TGI (A549 NSCLC): > 100 µM | TGI (ACHN renal): > 100 µM | TGI (CAKI-1 renal): > 100 µM | TGI (CCRF-CEM leukemia): > 100 µM | TGI (COLO 205 colon): > 100 µM | TGI (DLD-1 colon): > 100 µM | TGI (DMS 273 small cell lung): > 100 µM | TGI (EKVX NSCLC): > 100 µM | TGI (HCC-2998 colon): 85.6 µM | TGI (HCT-116 colon): 77.1 µM | TGI (HCT-15 colon): > 100 µM | TGI (HL-60(TB) leukemia): 56.5 µM | TGI (HOP-62 NSCLC): 69.9 µM | TGI (HOP-92 NSCLC): 76.2 µM | TGI (IGROV1 ovarian): > 100 µM | TGI (K-562 leukemia): > 100 µM | TGI (KM12 colon): > 100 µM | TGI (LOX IMVI melanoma): > 100 µM | TGI (LXFL 529 NSCLC): > 100 µM | TGI (M14 melanoma): > 100 µM | TGI (M19-MEL melanoma): > 100 µM | TGI (MALME-3M melanoma): > 100 µM | TGI (MOLT-4 leukemia): 97.9 µM | TGI (NCI-H23 lung): > 100 µM | TGI (NCI-H460 lung): > 100 µM | TGI (NCI-H522 lung): 96.1 µM | TGI (OVCAR-3 ovarian): 64.3 µM | TGI (OVCAR-4 ovarian): > 100 µM | TGI (OVCAR-5 ovarian): > 100 µM | TGI (OVCAR-8 ovarian): > 100 µM | TGI (RPMI-8226 leukemia): 70.1 µM | TGI (RXF 393 renal): 85.4 µM | TGI (RXF-631 renal): > 100 µM | TGI (SF-268 CNS): > 100 µM | TGI (SF-295 CNS): > 100 µM | TGI (SF-539 CNS): 66 µM | TGI (SK-MEL-2 melanoma): 69.1 µM | TGI (SK-MEL-28 melanoma): > 100 µM | TGI (SK-MEL-5 melanoma): > 100 µM | TGI (SK-OV-3 ovarian): 82.7 µM | TGI (SN12C renal): > 100 µM | TGI (SNB-19 CNS): > 100 µM | TGI (SNB-75 CNS): > 100 µM | TGI (SNB-78 CNS): > 100 µM | TGI (SW-620 colon): > 100 µM | TGI (TK-10 renal): > 100 µM | TGI (U251 CNS): > 100 µM | TGI (UACC-257 melanoma): > 100 µM | TGI (UACC-62 melanoma): 64.8 µM | TGI (UO-31 renal): 49.2 µM | TGI (XF 498 CNS): 86.3 µM
